Assay results as given in patent publication US9278954B2, “Pyrrolidine derivatives, pharmaceutical compositions and uses thereof” (Boehringer Ingelheim International GmbH, priority 2013, dated 2016).

Biological target: human ACC2 (Homo sapiens (Human), UniProt O00763)
Assay: ACC2 assay (spectrophotometric 384 well assay, NADH-linked kinetic method)
Format: biochemical
Conditions: hACC2 construct lacking the 128 N-terminal amino acids; 25° C., 340 nm over 15 minutes
Procedure: Spectrophotometric 384 Well Assay
Malonyl CoA formation by acetyl CoA carboxylases is stoichometrically linked to the consumption of ATP. ACC2 activity is measured in a NADH-linked kinetic method measuring ADP generated during the ACC reaction using a coupled lactate dehydrogenase/pyruvate kinase reaction.
The protein is then expressed in insect cells using a baculoviral expression system. Protein purification is performed by anion exchange.
All compounds are dissolved in dimethyl sulfoxide (DMSO) to a concentration of 10 mM.
The enzymatic reaction is then started by addition of a mixture of NADH, acetyl
Coenzyme A (both […].) and ATP (500 uM f.c.). The decrease of the optical density (slope S) is then determined at 25° C. at a wavelength of 340 nm over 15 minutes in a spectrophotometric reader.
Each assay microtiter plate contains wells with vehicle instead of compound as controls for the non-inhibited enzyme (100% CTL; ‘HIGH’) and wells without acetyl-CoA as controls for non-specific NADH degradation (0% CTL; ‘LOW’).

Sequence of human ACC2 (O00763 129-2458): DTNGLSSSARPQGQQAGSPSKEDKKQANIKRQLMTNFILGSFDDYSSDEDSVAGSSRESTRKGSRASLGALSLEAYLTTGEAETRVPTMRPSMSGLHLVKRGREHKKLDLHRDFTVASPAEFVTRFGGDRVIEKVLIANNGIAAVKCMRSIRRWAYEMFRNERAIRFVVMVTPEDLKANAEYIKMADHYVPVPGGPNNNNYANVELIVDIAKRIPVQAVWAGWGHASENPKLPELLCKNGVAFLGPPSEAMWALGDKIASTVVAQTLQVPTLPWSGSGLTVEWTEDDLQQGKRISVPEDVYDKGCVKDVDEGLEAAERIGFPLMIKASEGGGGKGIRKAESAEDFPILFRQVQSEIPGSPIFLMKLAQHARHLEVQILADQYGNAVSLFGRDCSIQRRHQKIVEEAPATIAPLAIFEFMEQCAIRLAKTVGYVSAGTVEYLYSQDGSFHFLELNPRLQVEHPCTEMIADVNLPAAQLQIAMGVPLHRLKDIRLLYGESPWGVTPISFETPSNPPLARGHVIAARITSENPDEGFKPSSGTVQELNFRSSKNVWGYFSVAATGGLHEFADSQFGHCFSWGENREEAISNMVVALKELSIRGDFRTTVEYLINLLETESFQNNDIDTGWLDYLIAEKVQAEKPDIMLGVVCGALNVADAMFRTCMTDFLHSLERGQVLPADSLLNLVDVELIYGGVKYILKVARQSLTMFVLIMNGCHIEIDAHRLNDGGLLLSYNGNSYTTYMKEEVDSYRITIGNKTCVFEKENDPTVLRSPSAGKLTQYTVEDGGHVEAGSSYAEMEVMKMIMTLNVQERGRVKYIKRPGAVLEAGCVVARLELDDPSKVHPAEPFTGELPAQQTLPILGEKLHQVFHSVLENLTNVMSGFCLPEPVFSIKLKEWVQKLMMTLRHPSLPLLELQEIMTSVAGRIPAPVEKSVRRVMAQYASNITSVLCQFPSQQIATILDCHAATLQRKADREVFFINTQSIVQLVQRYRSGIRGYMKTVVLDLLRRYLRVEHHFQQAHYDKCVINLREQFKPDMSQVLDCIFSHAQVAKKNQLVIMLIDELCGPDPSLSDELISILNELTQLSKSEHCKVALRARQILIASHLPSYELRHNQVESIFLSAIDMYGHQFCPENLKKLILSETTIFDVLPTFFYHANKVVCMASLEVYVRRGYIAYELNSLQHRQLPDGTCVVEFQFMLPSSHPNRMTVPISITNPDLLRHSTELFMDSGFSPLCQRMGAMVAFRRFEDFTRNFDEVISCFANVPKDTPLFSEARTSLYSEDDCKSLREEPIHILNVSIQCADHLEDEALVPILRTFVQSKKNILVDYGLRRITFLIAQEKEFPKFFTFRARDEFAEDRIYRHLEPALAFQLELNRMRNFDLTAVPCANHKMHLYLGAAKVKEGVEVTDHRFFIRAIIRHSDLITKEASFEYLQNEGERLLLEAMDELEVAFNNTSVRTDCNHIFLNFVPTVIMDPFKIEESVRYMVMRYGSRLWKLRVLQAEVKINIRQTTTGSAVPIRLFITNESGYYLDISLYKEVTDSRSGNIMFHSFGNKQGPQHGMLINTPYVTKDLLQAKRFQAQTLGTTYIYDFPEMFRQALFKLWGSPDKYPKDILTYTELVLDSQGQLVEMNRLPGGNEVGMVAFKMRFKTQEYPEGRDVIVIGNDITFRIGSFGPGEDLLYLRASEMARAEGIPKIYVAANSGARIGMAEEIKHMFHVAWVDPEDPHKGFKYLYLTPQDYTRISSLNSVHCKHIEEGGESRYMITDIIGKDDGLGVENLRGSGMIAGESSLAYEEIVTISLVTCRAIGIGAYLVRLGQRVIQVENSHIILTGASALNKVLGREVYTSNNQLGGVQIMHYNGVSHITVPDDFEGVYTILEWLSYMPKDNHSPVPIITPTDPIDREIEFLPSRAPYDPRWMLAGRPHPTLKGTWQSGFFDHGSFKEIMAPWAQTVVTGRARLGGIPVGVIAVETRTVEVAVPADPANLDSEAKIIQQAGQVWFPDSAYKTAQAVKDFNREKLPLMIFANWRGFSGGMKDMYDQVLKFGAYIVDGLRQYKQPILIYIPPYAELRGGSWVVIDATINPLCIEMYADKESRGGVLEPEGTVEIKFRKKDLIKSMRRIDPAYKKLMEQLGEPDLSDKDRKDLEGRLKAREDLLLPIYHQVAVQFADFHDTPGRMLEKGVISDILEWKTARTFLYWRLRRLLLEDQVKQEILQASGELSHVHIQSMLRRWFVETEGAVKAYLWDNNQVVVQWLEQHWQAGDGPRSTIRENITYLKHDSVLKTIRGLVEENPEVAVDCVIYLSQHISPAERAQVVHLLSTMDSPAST

Row | Compound | IC50 [nM]
1 | CCCNc1nccc(N2CC[C@@H](Oc3ccc(C(C)C(=O)NC4COC4)cc3)C2)c1F (some centres unmarked) [Example 1.61] | 626
2 | CC(C(=O)NCC(F)(F)F)c1ccc(O[C@@H]2CCN(c3ccc(OCC4CC4(F)F)cn3)C2)cc1 (some centres unmarked) [Example 1.62] | 637
3 | CC(C)NC(=O)C(C)c1ccc(O[C@@H]2CCN(c3ccc(OCC4CC4(F)F)cn3)C2)cc1 (some centres unmarked) [Example 1.63] | 652
4 | CC(C(=O)NCC(F)(F)F)c1ccc(O[C@@H]2CCN(c3ncnc(OCC(C)(F)F)c3F)C2)cc1 (some centres unmarked) [Example 1.64] | 658
5 | CCCNC(=O)C(C)c1ccc(O[C@@H]2CCN(c3nc(N(C)C)ncc3F)C2)cc1 (some centres unmarked) [Example 1.65] | 667
6 | CC(C(=O)NC1CCC1)c1ccc(O[C@@H]2CCN(c3ncnc(OCC(C)(F)F)c3F)C2)cc1 (some centres unmarked) [Example 1.66] | 687
7 | CC(C(=O)NC1COC1)c1ccc(O[C@@H]2CCN(c3ccc(OCC4CC4(F)F)cn3)C2)cc1 (some centres unmarked) [Example 1.67] | 706
8 | CC(C(=O)NC1COC1)c1ccc(O[C@@H]2CCN(c3nc(N(C)C)ncc3F)C2)cc1 (some centres unmarked) [Example 1.68] | 724
9 | CC(C(=O)NCC(F)(F)F)c1ccc(O[C@@H]2CCN(c3nc(N(C)C)ncc3F)C2)cc1 (some centres unmarked) [Example 1.69] | 748
10 | CC(C(=O)Nc1cncnc1)c1ccc(O[C@@H]2CCN(c3ccc(OCC4CC4(F)F)cn3)C2)cc1 (some centres unmarked) [Example 1.70] | 749
11 | C=CCCNC(=O)C(C)c1ccc(O[C@@H]2CCN(c3ccnc(NCCC)c3F)C2)cc1 (some centres unmarked) [Example 1.71] | 779
12 | CCCNc1nccc(N2CC[C@@H](Oc3ccc(C(C)C(=O)NC(C)CO)cc3)C2)c1F (some centres unmarked) [Example 1.72] | 789
13 | CCN(C)C(=O)C(C)c1ccc(O[C@@H]2CCN(c3ccc(OCC4CC4(F)F)cn3)C2)cc1 (some centres unmarked) [Example 1.73] | 798
14 | CC(C(=O)NCC(F)(F)F)c1ccc(O[C@@H]2CCN(c3ncnc(OCC(C)(C)O)c3Cl)C2)cc1 (some centres unmarked) [Example 1.74] | 813
15 | CCCNC(=O)C(C)c1ccc(O[C@@H]2CCN(c3ncnc(OCC(C)(F)F)c3F)C2)cc1 (some centres unmarked) [Example 1.75] | 818
16 | CC(CO)NC(=O)C(C)c1ccc(O[C@@H]2CCN(c3ncnc(OCC(C)(F)F)c3F)C2)cc1 (some centres unmarked) [Example 1.76] | 838
17 | CC(CO)NC(=O)C(C)c1ccc(O[C@@H]2CCN(c3nc(N(C)C)ncc3F)C2)cc1 (some centres unmarked) [Example 1.77] | 849
18 | CC(C(=O)NC1CCC1)c1ccc(O[C@@H]2CCN(c3nc(N(C)C)ncc3F)C2)cc1 (some centres unmarked) [Example 1.78] | 878
19 | CC(C)CNC(=O)C(C)c1ccc(O[C@@H]2CCN(c3ccc(OCC4CC4(F)F)cn3)C2)cc1 (some centres unmarked) [Example 1.79] | 907
20 | CC(C)NC(=O)C(C)c1ccc(O[C@@H]2CCN(c3ncnc(OCC(C)(F)F)c3F)C2)cc1 (some centres unmarked) [Example 1.80] | 907
21 | CC(C)NC(=O)C(C)c1ccc(O[C@@H]2CCN(c3nc(N(C)C)ncc3F)C2)cc1 (some centres unmarked) [Example 1.81] | 934
22 | CC(C(=O)NC1CCC1)c1ccc(O[C@@H]2CCN(c3ccc(OCC4CC4(F)F)cn3)C2)cc1 (some centres unmarked) [Example 1.82] | 940

Row | Compound | IC50 [nM]
23 | CC(C(=O)NCC1CC1)c1ccc(O[C@@H]2CCN(c3ncnc(OCC(C)(C)O)c3Cl)C2)cc1 (some centres unmarked) [Example 1.83] | 1070
24 | CC(CC#N)NC(=O)C(C)c1ccc(O[C@@H]2CCN(c3ccc(OCC4CC4(F)F)cn3)C2)cc1 (some centres unmarked) [Example 1.84] | 1120
25 | CC(C(=O)NCC1COC1)c1ccc(O[C@@H]2CCN(c3ncnc(OCC(C)(C)O)c3Cl)C2)cc1 (some centres unmarked) [Example 1.85] | 1220
26 | CC(C(=O)NCCCO)c1ccc(O[C@@H]2CCN(c3ccc(OCC4CC4(F)F)cn3)C2)cc1 (some centres unmarked) [Example 1.86] | 1380
27 | CC(=O)Nc1nc(CNC(=O)C(C)c2ccc(O[C@@H]3CCN(c4ncnc(OCC(C)(F)F)c4F)C3)cc2)cs1 (some centres unmarked) [Example 1.87] | 1380
28 | CC(C(=O)NC[C@@H](C)O)c1ccc(O[C@@H]2CCN(c3ccc(OCC4CC4(F)F)cn3)C2)cc1 (some centres unmarked) [Example 1.88] | 1780
29 | CC(C(=O)NC[C@H](C)O)c1ccc(O[C@@H]2CCN(c3ccc(OCC4CC4(F)F)cn3)C2)cc1 (some centres unmarked) [Example 1.89] | 1880
30 | C#CC(C)NC(=O)C(C)c1ccc(O[C@@H]2CCN(c3ccnc(NCCC)c3F)C2)cc1 (some centres unmarked) [Example 1.90] | 2230
31 | CC(C(=O)NC1CCOCC1)c1ccc(O[C@@H]2CCN(c3ncnc(OCC(C)(C)O)c3Cl)C2)cc1 (some centres unmarked) [Example 1.91] | 2920
32 | CCCNc1nccc(N2CC[C@@H](Oc3ccc(C(C)C(=O)NCC4CC(F)(F)C4)cc3)C2)c1F (some centres unmarked) [Example 1.92] | 3700
33 | CC(C(=O)N1CC(F)C1)c1ccc(O[C@@H]2CCN(c3nc(N(C)C)ncc3F)C2)cc1 (some centres unmarked) [Example 1.93] | 5480
34 | CCNC(=O)C(C)c1ccc(O[C@@H]2CCN(c3ccnc(N(CC)CC)n3)C2)cc1 (stereo partly drawn) [Example 2.1, (R)-2-(4-[1-(2-Diethylamino-pyrimidin-4-yl)-pyrrolidin-3-lyoxy]-phenyl)-N-ethyl-propionamide] | 95
35 | CCNC(=O)C(C)c1ccc(O[C@@H]2CCN(c3ccnc(N(C)CC)n3)C2)cc1 (some centres unmarked) [Example 2.2] | 179
36 | CCCN(C)c1nccc(N2CC[C@@H](Oc3ccc(C(C)C(=O)NCC)cc3)C2)n1 (some centres unmarked) [Example 2.3] | 188
37 | CCNC(=O)C(C)c1ccc(O[C@@H]2CCN(c3ccnc(N4CCC(F)(F)C4)n3)C2)cc1 (some centres unmarked) [Example 2.4] | 399
38 | CCNC(=O)C(C)c1ccc(O[C@@H]2CCN(c3ccnc(N(C)C4CC4)n3)C2)cc1 (some centres unmarked) [Example 2.5] | 575
39 | CCNC(=O)C(C)c1ccc(O[C@@H]2CCN(c3ccnc(N4CCOCC4)n3)C2)cc1 (some centres unmarked) [Example 2.6] | 808
40 | CC(C(=O)NC1CC1)c1ccc(O[C@@H]2CCN(c3ncnc(OCC(C)(C)O)c3F)C2)cc1 (stereo partly drawn) [Example 3.1, N-Cyclopropyl-2-(4-(1-[5-fluoro-6-(2-hydroxy-2-methyl-propoxy)-pyrimidin-4-yl]-(R)-pyrrolidin-3-yloxy)-phenyl)-propionamide] | 235
41 | CC(C(=O)NC1CC1C)c1ccc(O[C@@H]2CCN(c3ncnc(OCC(C)(C)O)c3F)C2)cc1 (some centres unmarked) [Example 3.2] | 259
42 | CCCNc1ncnc(N2CC[C@@H](Oc3ccc(C(C)C(=O)NC4CC4)cc3)C2)c1F (some centres unmarked) [Example 3.3] | 280
43 | CC(C(=O)Nc1cccc(F)c1)c1ccc(O[C@@H]2CCN(c3nc(N(C)C)ncc3F)C2)cc1 (some centres unmarked) [Example 3.4] | 300
44 | CC(C(=O)Nc1cccnc1)c1ccc(O[C@@H]2CCN(c3ncnc(OCC(C)(C)O)c3Cl)C2)cc1 (some centres unmarked) [Example 3.5] | 318

Row | Compound | IC50 [nM]
45 | CC(C(=O)Nc1cccnc1)c1ccc(O[C@@H]2CCN(c3nc(N(C)C)ncc3F)C2)cc1 (some centres unmarked) [Example 3.6] | 352
46 | CC(C(=O)NCC(F)F)c1ccc(O[C@@H]2CCN(c3ncnc(OCC(C)(C)O)c3F)C2)cc1 (some centres unmarked) [Example 3.7] | 613
47 | CCNC(=O)C(C)c1ccc(O[C@@H]2CCN(c3ncnc(OCC(C)(C)O)c3F)C2)cc1 (some centres unmarked) [Example 3.8] | 622
48 | CCCNc1ncnc(N2CC[C@@H](Oc3ccc(C(C)C(=O)NC4CC4C)cc3)C2)c1F (some centres unmarked) [Example 3.9] | 739
49 | CCCNc1ncnc(N2CC[C@@H](Oc3ccc(C(C)C(=O)NCC(F)F)cc3)C2)c1F (some centres unmarked) [Example 3.10] | 955
50 | CCCNc1ncnc(N2CC[C@@H](Oc3ccc(C(C)C(=O)NCC)cc3)C2)c1F (some centres unmarked) [Example 3.12] | 1030
51 | CCNC(=O)C(C)c1ccc(O[C@@H]2CCN(c3ccc(OCC)cc3)C2)cc1 (stereo partly drawn) [Example 4.1, 2-(4-[1-(4-Ethoxyl-phenyl)-(R)-pyrrolidin-3-yloxy]-phenyl)-N-ethyl-propionamide] | 288
52 | CCNC(=O)C(C)c1ccc(O[C@@H]2CCN(c3ccc(OCC)cc3F)C2)cc1 (some centres unmarked) [Example 4.2] | 575
53 | CCNC(=O)C(C)c1ccc(O[C@@H]2CCN(c3ccnc(C4CC4)n3)C2)cc1 (stereo partly drawn) [Example 5, 2-(4-[1-(2-Cyclopropyl-pyrimidin-4-yl)-(R)-pyrrolidin-3-yloxy]-phenyl)-N-ethyl-propionamide] | 1760
54 | CCNC(=O)C(C)c1ccc(O[C@@H]2CCN(c3ccc(OC4CCC4)cc3)C2)cc1 (stereo partly drawn) [Example 7.1, 2-(4-[1-(4-Cyclobutoxy-phenyl)-(R)-pyrrolidin-3-yloxy]-phenyl)-N-ethyl-propionamide] | 41
55 | CCNC(=O)C(C)c1ccc(O[C@@H]2CCN(c3ccc(OC4CCCC4)cc3)C2)cc1 (some centres unmarked) [Example 7.2] | 72
56 | CCNC(=O)C(C)c1ccc(O[C@@H]2CCN(c3ccc(OCC4CC4(F)F)cn3)C2)cc1 (some centres unmarked) [Example 7.3] | 190
57 | CCNC(=O)C(C)c1ccc(O[C@@H]2CCN(c3cccc(C(F)(F)F)c3)C2)cc1 (some centres unmarked) [Example 7.4] | 224
58 | CCCOc1ccc(N2CC[C@@H](Oc3ccc(C(C)C(=O)NCC)cc3)C2)c(Cl)c1 (some centres unmarked) [Example 7.5] | 225
59 | CCNC(=O)C(C)c1ccc(O[C@@H]2CCN(c3ccc(F)c(C(F)(F)F)c3)C2)cc1 (some centres unmarked) [Example 7.6] | 229
60 | CCNC(=O)C(C)c1ccc(O[C@@H]2CCN(c3ccc(OCC4CC4)cc3)C2)cc1 (some centres unmarked) [Example 7.8] | 274
61 | CCNC(=O)C(C)c1ccc(O[C@@H]2CCN(c3cccc(C(F)(F)F)n3)C2)cc1 (some centres unmarked) [Example 7.9] | 315
62 | CCNC(=O)C(C)c1ccc(O[C@@H]2CCN(c3ccc4c(c3)OCCCO4)C2)cc1 (some centres unmarked) [Example 7.10] | 329
63 | CCNC(=O)C(C)c1ccc(O[C@@H]2CCN(c3cc(C(F)(F)F)ccc3C)C2)cc1 (some centres unmarked) [Example 7.11] | 365
64 | CCNC(=O)C(C)c1ccc(O[C@@H]2CCN(c3ccc(OC(C)CC)cc3)C2)cc1 (some centres unmarked) [Example 7.14] | 407
65 | CCNC(=O)C(C)c1ccc(O[C@@H]2CCN(c3cccc(C(F)F)n3)C2)cc1 (some centres unmarked) [Example 7.15] | 408
